Laboratory results as given in patent publication US10703765B2 (priority 2014, dated 2020).
Structures can show the parent of a compound that is named as a salt. Where two headings read alike, the source gives them in different places.

Target: human σ1 receptor (Homo sapiens, UniProt Q99720)
Assay: biochemical
Type: binding
Parameters: μ and σ1 dual binding: key to the marks not given beside the values
[1] = read-out: μ and σ1 dual binding
[2] = combined class from Ki-σ1 (human σ1 receptor, A1) and Ki-μ (human μ-opioid receptor, A2) radioligand binding

human σ1 receptor, sequence (Q99720 whole entry): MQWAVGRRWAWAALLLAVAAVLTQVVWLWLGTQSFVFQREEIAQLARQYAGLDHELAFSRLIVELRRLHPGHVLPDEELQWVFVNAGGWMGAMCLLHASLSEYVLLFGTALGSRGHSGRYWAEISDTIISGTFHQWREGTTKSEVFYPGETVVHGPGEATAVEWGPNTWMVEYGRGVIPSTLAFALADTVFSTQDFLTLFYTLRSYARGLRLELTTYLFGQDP

With `CNC(=O)c1ccc(CCN2CCC3(CC2)CN(c2ccccc2)C(=O)C(C)O3)cc1` (stereo not drawn) [Example 274, N-methyl-4-(2-(2-methyl-3-oxo-4-phenyl-1-oxa-4,9-diazaspiro[5.5]undecan-9-yl)ethyl)benzamide hydrochloride] as the compound, how does the Ki [1] read?
The Ki was less than 500 nM.

For `CNC(=O)CCN1CC2(CCN(CCc3ccccc3)CC2)OC2(CC2)C1=O` [Example 275, N-methyl-3-[13-oxo-8-phenethyl-4-oxa-8,12-diazadispiro[2.1.5.3]tridecan-12-yl]propanamide hydrochloride], which Ki [1] is on record?
The Ki was greater than 500 nM.

With `CNC(=O)c1cccc(CCN2CCC3(CC2)CN(c2ccccc2F)C(=O)C(C)O3)c1` (stereo not drawn) [Example 276, 3-(2-(4-(2-fluorophenyl)-2-methyl-3-oxo-1-oxa-4,9-diazaspiro[5.5]undecan-9-yl)ethyl)-N-methylbenzamide] as the compound, how does the Ki read?
Its Ki is less than 500 nM.

How did the Ki turn out when `O=C1N(c2ccccc2)CC2(CCN(CC(O)c3ccccc3)CC2)OC12CC2` (stereo not drawn) [Example 277, 8-(2-hydroxy-2-phenylethyl)-12-phenyl-4-oxa-8,12-diazadispiro[2.1.5.3]tridecan-13-one] was run?
Its Ki is less than 100 nM.

Which Ki [1] does the source give for `O=C1COC2(CCN(CC(O)c3ccccc3)CC2)CN1Cc1ccc(C(F)(F)F)cn1` (stereo not drawn) [Example 278, 9-(2-hydroxy-2-phenylethyl)-4-((5-(trifluoromethyl)pyridin-2-yl)methyl)-1-oxa-4,9-diazaspiro[5.5]undecan-3-one] here?
Its Ki is less than 500 nM.

With `Cl.O=C1N(CCCO)CC2(CCN(CCc3ccccc3)CC2)OC12CC2` [Example 279, 12-(3-hydroxypropyl)-8-phenethyl-4-oxa-8,12-diazadispiro[2.1.5.3]tridecan-13-one hydrochloride] as the compound, how does the “μ and σ1 dual binding” value read?
Its value is “++”.

`CC1OC2(CCN(CCc3ccc(N)nc3)CC2)CN(c2ccccc2)C1=O` (stereo not drawn) [Example 280, 9-(2-(6-aminopyridin-3-yl)ethyl)-2-methyl-4-phenyl-1-oxa-4,9-diazaspiro[5.5]undecan-3-one] was tested. Which Ki [1] did it give?
Its Ki is greater than 500 nM.

For `CC(C)C1OC2(CCN(CCc3ccccc3OCCO)CC2)CN(c2ccccc2F)C1=O` (stereo not drawn) [Example 281, 4-(2-fluorophenyl)-9-(2-(2-hydroxyethoxy)phenethyl)-2-isopropyl-1-oxa-4,9-diazaspiro[5.5]undecan-3-one], which “μ and σ1 dual binding” value [2] is on record?
The value was “++”.

For `CC1OC2(CCN(CCc3cccc(OCCO)c3)CC2)CN(c2ccccc2F)C1=O` (stereo not drawn) [Example 282, 4-(2-fluorophenyl)-9-(3-(2-hydroxyethoxy)phenethyl)-2-methyl-1-oxa-4,9-diazaspiro[5.5]undecan-3-one], which Ki is on record?
The Ki was less than 100 nM.

`O=C1C(CO)OC2(CCN(CCc3ccccc3)CC2)CN1c1ccccc1` (stereo not drawn) [Example 283, 2-(hydroxymethyl)-9-phenethyl-4-phenyl-1-oxa-4,9-diazaspiro[5.5]undecan-3-one] was tested. Which Ki [1] did it give?
The Ki was less than 500 nM.

`O=C1COC2(CCN(CCc3ccccc3)CC2)CN1Cc1ncc[nH]1` [Example 284, 4-((1H-imidazol-2-yl)methyl)-9-phenethyl-1-oxa-4,9-diazaspiro[5.5]undecan-3-one hydrochloride] was tested. Which Ki [1] did it give?
The Ki was greater than 500 nM.

Which “μ and σ1 dual binding” value [2] does the source give for `O=C1COC2(CCN(Cc3ccccc3)CC2)CN1c1ccccc1O` [Example 285, 9-benzyl-4-(2-hydroxyphenyl)-1-oxa-4,9-diazaspiro[5.5]undecan-3-one] here?
Its value is “++”.

With `O=C1COC2(CCN(CCc3ccccc3)CC2)CN1c1ccccc1O` [Example 286, 4-(2-hydroxyphenyl)-9-phenethyl-1-oxa-4,9-diazaspiro[5.5]undecan-3-one] as the compound, how does the “μ and σ1 dual binding” value [2] read?
Its value is “++”.

How did the “μ and σ1 dual binding” value [2] turn out when `O=C1COC2(CCN(Cc3ccccc3)CC2)CN1c1cccc(O)c1` [Example 287, 9-benzyl-4-(3-hydroxyphenyl)-1-oxa-4,9-diazaspiro[5.5] undecan-3-one] was run?
The value was “++”.

How did the Ki [1] turn out when `O=C1COC2(CCN(CCc3ccccc3)CC2)CN1c1cccc(O)c1` [Example 288, 4-(3-hydroxyphenyl)-9-phenethyl-1-oxa-4,9-diazaspiro[5.5]undecan-3-one] was run?
Its Ki is less than 500 nM.

Which Ki [1] does the source give for `O=C1COC2(CCN(CCc3ccccc3O)CC2)CN1c1ccccc1` [Example 289, 9-(2-hydroxyphenethyl)-4-phenyl-1-oxa-4,9-diazaspiro[5.5]undecan-3-one] here?
Its Ki is less than 500 nM.

Which “μ and σ1 dual binding” value does the source give for `O=C1COC2(CCN(CCc3ccc(O)cc3)CC2)CN1c1ccccc1` [Example 290, 9-(4-hydroxyphenethyl)-4-phenyl-1-oxa-4,9-diazaspiro[5.5]undecan-3-one] here?
Its value is “++”.

Which Ki [1] does the source give for `O=C1COC2(CCN(CCc3cccc(O)c3)CC2)CN1c1ccccc1` [Example 291, 9-(3-hydroxyphenethyl)-4-phenyl-1-oxa-4,9-diazaspiro[5.5]undecan-3-one] here?
Its Ki is less than 500 nM.

How did the “μ and σ1 dual binding” value [2] turn out when `Oc1ccc(CCN2CCC3(CC2)CN(c2ccccc2)CCO3)cc1` [Example 292, 4-(2-(4-phenyl-1-oxa-4,9-diazaspiro[5.5]undecan-9-yl)ethyl)phenol] was run?
The value was “++”.

How did the “μ and σ1 dual binding” value turn out when `CC1OC2(CCN(CCc3ccccc3)CC2)CN(c2ccc(O)cc2)C1=O` (stereo not drawn) [Example 293, 4-(4-hydroxyphenyl)-2-methyl-9-phenethyl-1-oxa-4,9-diazaspiro[5.5]undecan-3-one] was run?
The value was “++”.

`CC1OC2(CCN(CCc3ccccc3)CC2)CN(c2cccc(O)c2)C1=O` (stereo not drawn) [Example 294, 4-(3-hydroxyphenyl)-2-methyl-9-phenethyl-1-oxa-4,9-diazaspiro[5.5]undecan-3-one] was tested. Which “μ and σ1 dual binding” value did it give?
Its value is “++”.

With `CC1OC2(CCN(CCc3ccccc3O)CC2)CN(c2ccccc2)C1=O` (stereo not drawn) [Example 295, 9-(2-hydroxyphenethyl)-2-methyl-4-phenyl-1-oxa-4,9-diazaspiro[5.5]undecan-3-one] as the compound, how does the Ki read?
The Ki was less than 100 nM.

With `CC1OC2(CCN(CCc3ccccc3)CC2)CN(c2ccccc2O)C1=O` (stereo not drawn) [Example 296, 4-(2-hydroxyphenyl)-2-methyl-9-phenethyl-1-oxa-4,9-diazaspiro[5.5]undecan-3-one] as the compound, how does the “μ and σ1 dual binding” value read?
The value was “++”.

With `CC(C)C1OC2(CCN(CCc3ccccc3O)CC2)CN(c2ccccc2F)C1=O` (stereo not drawn) [Example 297, 4-(2-fluorophenyl)-9-(2-hydroxyphenethyl)-2-isopropyl-1-oxa-4,9-diazaspiro[5.5]undecan-3-one] as the compound, how does the Ki read?
Its Ki is less than 100 nM.

How did the Ki [1] turn out when `CC1OC2(CCN(CCc3cccc(O)c3)CC2)CN(c2ccccc2F)C1=O` (stereo not drawn) [Example 298, 4-(2-fluorophenyl)-9-(3-hydroxyphenethyl)-2-methyl-1-oxa-4,9-diazaspiro[5.5]undecan-3-one] was run?
Its Ki is less than 100 nM.

Which Ki [1] does the source give for `Oc1ccccc1CCN1CCC2(CC1)CN(Cc1ccccc1)CCO2` [Example 299, 2-(2-(4-benzyl-1-oxa-4,9-diazaspiro[5.5]undecan-9-yl)ethyl)phenol] here?
The Ki was less than 100 nM.

How did the “μ and σ1 dual binding” value turn out when `Cl.O=C1COC2(CCN(CCc3ccccc3O)CC2)CN1Cc1ccccn1` [Example 300, 9-(2-hydroxyphenethyl)-4-(pyridin-2-ylmethyl)-1-oxa-4,9-diazaspiro[5.5]undecan-3-one hydrochloride] was run?
Its value is “++”.

`O=C1C(CO)OC2(CCN(CCc3ccccc3O)CC2)CN1c1ccccc1F` (stereo not drawn) [Example 301, 4-(2-fluorophenyl)-2-(hydroxymethyl)-9-(2-hydroxyphenethyl)-1-oxa-4,9-diazaspiro[5.5]undecan-3-one] was tested. Which “μ and σ1 dual binding” value [2] did it give?
The value was “++”.

Which Ki does the source give for `O=C1C(CCCO)OC2(CCN(CCc3ccccc3)CC2)CN1c1ccccc1F` (stereo not drawn) [Example 302, 4-(2-fluorophenyl)-2-(3-hydroxypropyl)-9-phenethyl-1-oxa-4,9-diazaspiro[5.5]undecan-3-one] here?
Its Ki is less than 500 nM.

For `CC1OC2(CCN(CCc3csc(N)n3)CC2)CN(c2ccccc2F)C1=O` (stereo not drawn) [Example 303, 9-(2-(2-aminothiazol-4-yl)ethyl)-4-(2-fluorophenyl)-2-methyl-1-oxa-4,9-diazaspiro[5.5]undecan-3-one], which Ki is on record?
The Ki was less than 500 nM.
